Source: patent US20210338728A1, “METHODS AND COMPOSITIONS FOR THE EXPANSION AND USE OF ALLOGENEIC GAMMA/DELTA-T CELLS” (Phosphogam, Inc., priority 2018, published 2021)

Test system: γδ-T cells
Assay: Ex vivo expansion of human γδ-T cells from healthy donor PBMC with C-HDMPP and IL-2, flow cytometry at day 21
Assay type: cell-based
Description: Peripheral blood mononuclear cells (PBMC) were isolated from peripheral blood obtained by venipuncture from a healthy individual. Fresh blood was collected using standard aseptic technique. PBMC were isolated utilizing a standard density gradient centrifugation method. PBMC were washed in PBS, then resuspended in complete RPMI-1640 supplemented with 10% characterized fetal bovine serum and PCN+streptomycin.
Cell cultures were initiated by seeding PBMC into tissue culture flasks to which recombinant human IL-2 was added. γδ-T cell expansion was initiated by the addition of C-HDMPP. Cultures were maintained at 37° C., 5% CO2 in incubators situated within a BSL2 containment environment. Fresh media was added as needed to keep cell concentration at approximately 1×10^6 cells/ml. Human IL-2 was added every 5 days. Cultures were maintained for 21 days at which time they were analyzed by flow cytometry. […] At 100 nM C-HDMPP the cultures were ≥96% pure γδ-T cells with viability ≥96%.

[1] = 100 nM C-HDMPP, 21 days of culture with IL-2, flow cytometry

Structure (SMILES): C/C(=C\CCP(=O)(O)OP(=O)(O)O)CO [C-HDMPP]
- purity of γδ-T cells in the cultures [1]: ≥ 96%
- viability of the cultures [1]: ≥ 96%
- γδ-T cell growth (expansion) versus concentration (nanomolar concentrations, 21 days, FIG. 1): can be titrated to promote optimal γδ-T cell growth while avoiding overstimulation
